test system: human chronic myelocytic leukemia-derived K562 cells; assay: Cell growth inhibition test with K562 cells (WST-1); format: cell-based; conditions: 72 hours, read-out: 50% growth inhibition concentration (GI50)
Experimental: In a 96-well plate (Nunc), human chronic myelocytic leukemia-derived K562 cells were sown in an amount of 1500 cells/well, and pre-incubated in 10% FCS-containing Rosewell Park Memorial Institute's Medium (RPMI) 1640 (Nissui) (incubation medium) in a 5% carbon dioxide incubator at 37° C. for 5 hours. Next, a DMSO solution of a test compound controlled at 10 mmol/L was stepwise diluted with the incubation medium, and added to each well in a total amount of 100 μL/well, and further incubated in the 5% carbon dioxide incubator at 37° C. for 72 hours. After the incubation, WST-1-labeled mixture (Rosh Diagnostic) diluted 2-fold with the incubation medium was added thereto in an amount of 20 μL/well, and incubated in the 5% carbon dioxide incubator at 37° C. for 2 hours. Using a microplate spectrophotometer (Biorad's Model 550), the absorbance at 450 nm and 655 nm of each well was measured. The cell growth inhibition activity of the test compound was indicated by the 50% growth inhibition concentration (GI50) thereof, like in Test Example 2.

GI50, ≤ 50 µM:
CCc1c(O)cc(O)c(-c2cccc(NS(C)(=O)=O)c2)c1CCOCC(O)CO (stereo not drawn) [Compound 202, 6-Ethyl-5-[2-(2,3-dihydroxypropoxy)ethyl]-4-{3-[N-(methylsulfonyl)amino]phenyl}benzene-1,3-diol]
CCc1c(O)cc(O)c(-c2cccc(NS(=O)(=O)c3ccc(C)cc3)c2)c1CCOCC(O)CO (stereo not drawn) [Compound 203, 5-[2-(2,3-Dihydroxypropoxy)ethyl]-6-ethyl-4-{3-[N-(4-tolylsulfonyl)amino]phenyl}benzene-1,3-diol]
CCc1c(O)cc(O)c(-c2cccc(NC(C)=O)c2)c1CCOCC(O)CO (stereo not drawn) [Compound 204, 4-[3-(N-acetylamino)phenyl]-5-[2-(2,3-dihydroxypropoxy)ethyl]-6-ethylbenzene-1,3-diol]
CCc1c(O)cc(O)c(-c2cccc(NC(=O)c3ccccc3)c2)c1CCOCC(O)CO (stereo not drawn) [Compound 205, 4-[3-(N-benzoylamino)phenyl]-5-[2-(2,3-dihydroxypropoxy)ethyl]-6-ethylbenzene-1,3-diol]
CCNC(=O)Nc1cccc(-c2c(O)cc(O)c(CC)c2CCOCC(O)CO)c1 (stereo not drawn) [Compound 206, 5-[2-(2,3-Dihydroxypropoxy)ethyl]-6-ethyl-4-[3-(3-ethylureido)phenyl]benzene-1,3-diol]
CCc1c(O)cc(O)c(-c2cccc(NC(=O)C(C)(CO)CO)c2)c1CCOCC(O)CO (stereo not drawn) [Compound 207, 5-[2-(2,3-Dihydroxypropoxy)ethyl]-6-ethyl-4-{3-[2-hydroxy-1-(hydroxymethyl)-1-methylethylcarbonylamino]phenyl}benzene-1,3-diol]
CCc1c(O)cc(O)c(-c2ccccc2)c1Cc1ocnc1CO [Compound 208, 6-Ethyl-5-{[4-(hydroxymethyl)-1,3-oxazol-5-yl]methyl}-4-phenylbenzene-1,3-diol]
CCc1c(O)cc(O)c(-c2ccccc2)c1CC1OCC(CO)O1 (stereo not drawn) [Compound 211, 6-Ethyl-5-[(4-hydroxymethyl-1,3-dioxolan-2-yl)methyl]-4-phenylbenzene-1,3-diol]
CCc1c(O)cc(O)c(-c2ccccc2)c1CCC(N)=O [Compound 212, 3-(2-Ethyl-3,5-dihydroxy-6-phenylphenyl)propanamide]
CCc1c(O)cc(O)c(-c2ccccc2)c1CCC(C(=O)OC)C(=O)OC [Compound 213, Methyl 4-(2-ethyl-3,5-dihydroxy-6-phenylphenyl)-2-(methoxycarbonyl)butanoate]
CCc1c(O)cc(O)c(-c2ccccc2)c1C=CC(CO)CO [Compound 214, 6-ethyl-5-[4-hydroxy-3-(hydroxymethyl)but-1-en-1-yl]-4-phenylbenzene-1,3-diol]
CCc1c(O)cc(O)c(-c2ccccc2)c1CCC(CO)CO [Compound 215, 6-Ethyl-5-[4-hydroxy-3-(hydroxymethyl)butyl]-4-phenylbenzene-1,3-diol]
CCc1c(O)cc(O)c(-c2ccccc2)c1CCCC(CO)CO [Compound 217, 6-Ethyl-5-[5-hydroxy-4-(hydroxymethyl)pentyl]-4-phenylbenzene-1,3-diol]
CCc1c(O)cc(O)c(-c2cccc(O)c2)c1CCOCC1CO1 (stereo not drawn) [Compound 219, 6-Ethyl-4-(3-hydroxyphenyl)-5-[2-(oxiran-2-ylmethoxy)ethyl]benzene-1,3-diol]
CCc1c(O)cc(O)c(-c2ccccc2)c1CCC(=O)NCCO [Compound 220, 3-(2-Ethyl-3,5-dihydroxy-6-phenylphenyl)-N-(2-hydroxyethyl)propanamide]
CCc1c(O)cc(O)c(-c2ccccc2)c1CCC(=O)NCCNC(C)=O [Compound 221, N-[2-(acetylamino)ethyl]-3-(2-ethyl-3,5-dihydroxy-6-phenylphenyl)propanamide]
CCc1c(O)cc(O)c(-c2ccccc2)c1CCc1ocnc1C(N)=O [Compound 222, 5-[2-(2-Ethyl-3,5-dihydroxy-6-phenylphenyl)ethyl]-1,3-oxazole-4-carboxamide]
CCc1c(O)cc(O)c(-c2ccccc2)c1CCc1ocnc1C(=O)NCCO [Compound 223, 5-[2-(2-Ethyl-3,5-dihydroxy-6-phenylphenyl)ethyl]-N-(2-hydroxyethyl)-1,3-oxazole-4-carboxamide]
CCc1c(O)cc(O)c(-c2ccccc2)c1CCc1ocnc1C(=O)N(CCO)CCO [Compound 224, 5-[2-(2-ethyl-3,5-dihydroxy-6-phenylphenyl)ethyl]-N,N-bis(2-hydroxyethyl)-1,3-oxazole-4-carboxamide]
CCc1c(O)cc(O)c(-c2ccccc2)c1CCc1ocnc1C(=O)NC(CO)CO [Compound 225, 5-[2-(2-ethyl-3,5-dihydroxy-6-phenylphenyl)ethyl]-N-[2-hydroxy-1-(hydroxymethyl)ethyl]-1,3-oxazole-4-carboxamide]
CCc1c(O)cc(O)c(-c2ccccc2)c1CCc1ocnc1C(=O)NCC(O)CO (stereo not drawn) [Compound 226, N-(2,3-dihydroxypropyl)-5-[2-(2-ethyl-3,5-dihydroxy-6-phenylphenyl)ethyl]-1,3-oxazole-4-carboxamide]
CCc1c(O)cc(O)c(-c2cccc(C)c2)c1CC1O[C@H](CO)[C@@H](CO)O1 [Compound 228, 5-{[(4R,5R)-4,5-bis(hydroxymethyl)-1,3-dioxolan-2-yl]methyl}-6-ethyl-4-(3-methylphenyl)benzene-1,3-diol]
OC[C@H]1OC(Cc2cc(O)cc(O)c2-c2ccccc2)O[C@@H]1CO [Compound 230, 5-{[(4R,5R)-4,5-bis(hydroxymethyl)-1,3-dioxolan-2-yl]methyl}-4-phenylbenzene-1,3-diol]
OC[C@H]1OC(Cc2c(Br)c(O)cc(O)c2-c2ccccc2)O[C@@H]1CO [Compound 232, 5-{[(4R,5R)-4,5-bis(hydroxymethyl)-1,3-dioxolan-2-yl]methyl}-6-bromo-4-phenylbenzene-1,3-diol]
CCc1c(O)cc(O)c(-c2cccc(OC)c2)c1CC1O[C@@H](CO)[C@H](CO)O1 [Compound 233, 5-{[(4S,5S)-4,5-Bis(hydroxymethyl)-1,3-dioxolan-2-yl]methyl}-6-ethyl-4-(3-methoxyphenyl)benzene-1,3-diol]
CC(=O)c1c(O)cc(O)c(-c2ccccc2)c1CC1O[C@H](CO)[C@@H](CO)O1 [Compound 234, 1-(6-{[(4R,5R)-4,5-bis(hydroxymethyl)-1,3-dioxolan-2-yl]methyl}-2,4-dihydroxy-5-phenylphenyl)ethanone]
COC(=O)Cc1cc(O)cc(O)c1-c1ccc(CCC(C)=O)o1 [Compound 261, Methyl 3,5-dihydroxy-2-[5-(3-oxobutyl)furan-2-yl]phenylacetate]
OC[C@H]1OC(Cc2c(Cl)c(O)cc(O)c2-c2ccccc2)O[C@@H]1CO [Compound 280, 5-{[(4R,5R)-4,5-bis(hydroxymethyl)-1,3-dioxolan-2-yl]methyl}-6-chloro-4-phenylbenzene-1,3-diol]
CCc1c(O)cc(O)c(-c2cccc(O)c2)c1CC1O[C@@H](CO)[C@H](CO)O1 [Compound 281, 5-{[(4S,5S)-4,5-bis(hydroxymethyl)-1,3-dioxolan-2-yl]methyl}-6-ethyl-4-(3-hydroxyphenyl)benzene-1,3-diol]
CCc1c(O)cc(O)c(-c2cccc(F)c2)c1CC1O[C@@H](CO)[C@H](CO)O1 [Compound 282, 5-{[(4S,5S)-4,5-bis(hydroxymethyl)-1,3-dioxolan-2-yl]methyl}-6-ethyl-4-(3-fluorophenyl)benzene-1,3-diol]
CCc1c(O)cc(O)c(-c2cc(C)cc(C)c2)c1CC1O[C@@H](CO)[C@H](CO)O1 [Compound 283, 5-{[(4S,5S)-4,5-bis(hydroxymethyl)-1,3-dioxolan-2-yl]methyl}-4-(3,5-dimethylphenyl)-6-ethylbenzene-1,3-diol]
CCc1c(O)cc(O)c(-c2cccc(NC(C)=O)c2)c1CC1O[C@@H](CO)[C@H](CO)O1 [Compound 284, 4-[3-(acetylamino)phenyl]-5-{[(4S,5S)-4,5-bis(hydroxymethyl)-1,3-dioxolan-2-yl]methyl}-6-ethylbenzene-1,3-diol]
OC[C@@H]1OC(Cc2c(Cl)c(O)cc(O)c2-c2ccccc2)O[C@H]1CO [Compound 285, 5-{[(4S,5S)-4,5-bis(hydroxymethyl)-1,3-dioxolan-2-yl]methyl}-6-chloro-4-phenylbenzene-1,3-diol]
CCc1c(O)cc(O)c(-c2cccc(OC)c2)c1CC1O[C@H](CO)[C@@H](CO)O1 [Compound 286, 5-{[(4R,5R)-4,5-bis(hydroxymethyl)-1,3-dioxolan-2-yl]methyl}-6-ethyl-4-(3-methoxyphenyl)benzene-1,3-diol]
CC(=O)c1c(O)cc(O)c(-c2ccccc2)c1CC1O[C@@H](CO)[C@H](CO)O1 [Compound 287, 6-Acetyl-5-{[(4S,5S)-4,5-bis(hydroxymethyl)-1,3-dioxolan-2-yl]methyl}-4-phenylbenzene-1,3-diol]
CCc1c(O)cc(O)c(-c2cccc(C(N)=O)c2)c1CC1O[C@@H](CO)[C@H](CO)O1 [Compound 288, 5-{[(4S,5S)-4,5-Bis(hydroxymethyl)-1,3-dioxolan-2-yl]methyl}-6-ethyl-4-(3-carbamoylphenyl)benzene-1,3-diol]
